Test system: trachea allograft mouse model of acute transplant rejection
Test: murine orthotopic tracheal transplant model (allograft rejection)
Assay type: in vivo
Details: for tissue oxygenation (pO2): pirfenidone-treated allografted mice vs untreated allografted controls, over time post-transplantation (FIG. 3), pO2 in mm Hg
Protocol: Pirfenidone was tested in a murine orthotopic tracheal transplant model, as generally described in Babu et al., J Clin Invest. 2007; 117(12):3774-3785. In this model in which allograft rejection occurs, typically perfusion ceases after a fixed period of time which is highly reliable (10 days). […] Perfusion is later restored on rejecting allografts as recipient-derived vessels neovascularize the transplant on d28. In contrast, mice receiving syngeneic (identical) grafts maintain tissue oxygenation at approximately the same levels throughout. Magnified images of the microvasculature, obtained after i.v. injection of FITC-conjugated (green) tomato lectin to bind and identify perfused vasculature, are shown in FIG. 1B.

## Cc1ccc(=O)n(-c2ccccc2)c1 [Pirfenidone, 5-methyl-1-phenyl-2-(1H)-pyridone]
Allograft recipients fed pirfenidone in their chow
  fibrosis: significantly attenuated
Allograft recipients fed pirfenidone in their chow, vs control allografted mice receiving no treatment
  perfused vasculature (FITC-conjugated tomato lectin images): the vasculature is protected
Pirfenidone in chow, days 10 and 12 post-transplantation, FITC-lectin images (FIG. 2)
  appearance of vasculature at days 10 and 12: robust
pirfenidone-treated allografted mice (FIG. 3)
  time vasculature is preserved: at least 12 days post-transplantation
  tissue oxygenation (pO2): maintained tissue oxygenation at approximately the same levels throughout the time period shown
Listed as pirfenidone
  tissue oxygenation (pO2): maintaining tissue oxygenation levels at the same levels through at least day 12
